Measured values reported in patent publication US12545673B2, “Imidazopyridine derivative and pharmaceutical composition comprising same as active ingredient” (TSD LIFE SCIENCES CO., LTD., priority 2019, dated 2026).
Like-named read-outs stand apart in the source and are kept apart here.

How the values were obtained:
[1] = tested on: chronic myeloid leukemia cell line K562; test: Cancer cell proliferation inhibitory activity evaluation 1 (CCK-8), K562; type: cell-based; conditions: Homo sapiens, read-out: Cancer cell proliferation inhibitory activity K562
Procedure: (§1) In order to identify whether the compound has anticancer activity, the human breast cancer cell line MDA-MB-231, the colorectal cancer cell line HT-29, the acute myeloid leukemia cell line U937, and the chronic myeloid leukemia cell line K562 were used. The cell line was cultured using RPMI-1640 medium containing 10% fetal bovine serum. Welgene products were used as the medium, and hyclone products were used for fetal bovine serum, and 1% of antibiotics for cell culture from Gibco were used as the culture medium.

[2] = tested on: colorectal cancer cell line HT-29; test: Cancer cell proliferation inhibitory activity evaluation 1 (CCK-8), HT-29; type: cell-based; conditions: Homo sapiens, read-out: Cancer cell proliferation inhibitory activity HT29
Procedure: as §1

[3] = tested on: gastric cancer cell line AGS; test: Cancer cell proliferation inhibitory activity evaluation 2 (CCK-8), AGS; type: cell-based; conditions: Homo sapiens, read-out: Cancer cell proliferation inhibitory activity AGS
[4] = tested on: human breast cancer cell line MDA-MB-231; test: Cancer cell proliferation inhibitory activity evaluation 1 (CCK-8), MDA-MB-231; type: cell-based
Procedure: as §1

[5] = tested on: acute myeloid leukemia cell line U937; test: Cancer cell proliferation inhibitory activity evaluation 1 (CCK-8), U937; type: cell-based; conditions: Homo sapiens, read-out: Cancer cell proliferation inhibitory activity U937
Procedure: as §1

[6] = tested on: acute lymphoblastic leukemia cell line Jurkat; test: Cancer cell proliferation inhibitory activity evaluation 2 (CCK-8), Jurkat; type: cell-based; conditions: Homo sapiens
[7] = tested on: acute myeloid leukemia cell line U937; test: Cancer cell proliferation inhibitory activity evaluation 2 (CCK-8), U937; type: cell-based; conditions: Homo sapiens, read-out: Cancer cell proliferation inhibitory activity U937
MLK3 = MLK3 (Homo sapiens (Human), UniProt Q16584); test: Evaluation of inhibitory activity of enzyme units, MLK3 ([γ-33P]-ATP filter assay)
LRRK2 mutant (G2019S) = LRRK2 mutant (G2019S) (Homo sapiens (Human), UniProt Q5S007, G2019S); test: Evaluation of inhibitory activity against LRRK2 (affinity bead competition binding), G2019S mutant; conditions: read-out: Residual active values (%) LRRK2(G2019S); for remaining binding at 0.1 µM: 100 nM; for remaining binding at 0.5 µM: 500 nM
Procedure: (§2) In order to identify the activity inhibitory effect on the LRRK2 wild-type and LRRK2 mutant (G2019S) kinase of the example compound according to the present disclosure, BL21-derived E. coli bacteria (E. coli) were cultured in a 24-well plate until the growth phase (log phase). After culturing, T7 phage tagged with LRRK2 wild-type or LRRK2 mutant (G2019S) was used to infect the multiplicity of infection (MOI) at 0.4. Thereafter, the E. coli bacteria were stirred at 32° C. for 90 to 150 minutes to allow dissolution. The lysate of E. coli bacteria was centrifuged (6,000×g) and filtered (0.2 μm), and the obtained tagged T7 phage […] a DNA-tagged kinase protein (LRRK2 or LRRK2 G2019S) was obtained.
(§3) After blocking the biotinylated ligand with extra biotin, it is washed with Pierce's buffer, SeaBlock (1% BSA, 0.05% Tween 20, 1 mM DTT) to remove unbound ligand and reduce non-specific binding.
(§4) The compound was prepared at a concentration of 40× in 100% DMSO and used after dilution, and all binding reactions were performed in a final volume of 0.02 ml in a 384-well plate.
(§5) The activity inhibitory effect on the LRRK2 wild-type and LRRK2 mutant (G2019S) kinases of the example compounds according to the present disclosure was measured and shown in Table 10 below.

LRRK2 wild-type = LRRK2 wild-type (Homo sapiens (Human), UniProt Q5S007); test: Evaluation of inhibitory activity against LRRK2 (affinity bead competition binding), wild-type; conditions: read-out: Residual active values (%) LRRK2; for remaining binding at 0.1 µM: 100 nM; for remaining binding at 0.5 µM: 500 nM
Procedure: as §2, §3, §4, §5

MLK1 = MLK1 (Homo sapiens (Human), UniProt P80192); test: Evaluation of inhibitory activity of enzyme units, MLK1 ([γ-33P]-ATP filter assay); type: biochemical
[8] = tested on: human lung cancer cell line A549; test: Cancer cell proliferation inhibitory activity evaluation 2 (CCK-8), A549; type: cell-based
Procedure: (§6) In order to identify whether the compounds have anticancer activity, the acute myeloid leukemia cell line U937, the acute lymphoblastic leukemia cell line Jurkat, the gastric cancer cell lines AGS, […], and the human lung cancer cell line A549 were used. The cell line was cultured using RPMI-1640 medium (U937, Jurkat, AGS, A549) or DMEM (Hs746T) medium containing 10% fetal bovine serum. Welgene products were used as the medium, and hyclone products were used for fetal bovine serum, and 1% of antibiotics for cell culture from Gibco were used as the culture medium.

[9] = tested on: gastric cancer cell line Hs746T; test: Cancer cell proliferation inhibitory activity evaluation 2 (CCK-8), Hs746T; type: cell-based; conditions: Homo sapiens
Procedure: as §6

[10] = MDA-MB-231, 10 μM, 72 hours, CCK-8, read-out: Cancer cell proliferation inhibitory activity MDAMB231
[11] = U-937, 10 μM, 72 hours, CCK-8 (Table 2)
[12] = 10 μM, 72 hours, CCK-8, read-out: Cancer cell proliferation inhibitory activity Jurkat
[13] = U-937, 10 μM, 72 hours, CCK-8 (Table 3)
[14] = MDA-MB-231, 72 h, read-out: Cancer cell proliferation inhibitory activity MDAMB231
[15] = 72 h, read-out: Cancer cell proliferation inhibitory activity Jurkat
[16] = A549, 10 μM, 72 hours, CCK-8, read-out: Cancer cell proliferation inhibitory activity A549
[17] = 10 μM, 72 hours, CCK-8, read-out: Cancer cell proliferation inhibitory activity Hs746T

Sequence of LRRK2 mutant (G2019S) (Q5S007 whole entry G2019S, looked up): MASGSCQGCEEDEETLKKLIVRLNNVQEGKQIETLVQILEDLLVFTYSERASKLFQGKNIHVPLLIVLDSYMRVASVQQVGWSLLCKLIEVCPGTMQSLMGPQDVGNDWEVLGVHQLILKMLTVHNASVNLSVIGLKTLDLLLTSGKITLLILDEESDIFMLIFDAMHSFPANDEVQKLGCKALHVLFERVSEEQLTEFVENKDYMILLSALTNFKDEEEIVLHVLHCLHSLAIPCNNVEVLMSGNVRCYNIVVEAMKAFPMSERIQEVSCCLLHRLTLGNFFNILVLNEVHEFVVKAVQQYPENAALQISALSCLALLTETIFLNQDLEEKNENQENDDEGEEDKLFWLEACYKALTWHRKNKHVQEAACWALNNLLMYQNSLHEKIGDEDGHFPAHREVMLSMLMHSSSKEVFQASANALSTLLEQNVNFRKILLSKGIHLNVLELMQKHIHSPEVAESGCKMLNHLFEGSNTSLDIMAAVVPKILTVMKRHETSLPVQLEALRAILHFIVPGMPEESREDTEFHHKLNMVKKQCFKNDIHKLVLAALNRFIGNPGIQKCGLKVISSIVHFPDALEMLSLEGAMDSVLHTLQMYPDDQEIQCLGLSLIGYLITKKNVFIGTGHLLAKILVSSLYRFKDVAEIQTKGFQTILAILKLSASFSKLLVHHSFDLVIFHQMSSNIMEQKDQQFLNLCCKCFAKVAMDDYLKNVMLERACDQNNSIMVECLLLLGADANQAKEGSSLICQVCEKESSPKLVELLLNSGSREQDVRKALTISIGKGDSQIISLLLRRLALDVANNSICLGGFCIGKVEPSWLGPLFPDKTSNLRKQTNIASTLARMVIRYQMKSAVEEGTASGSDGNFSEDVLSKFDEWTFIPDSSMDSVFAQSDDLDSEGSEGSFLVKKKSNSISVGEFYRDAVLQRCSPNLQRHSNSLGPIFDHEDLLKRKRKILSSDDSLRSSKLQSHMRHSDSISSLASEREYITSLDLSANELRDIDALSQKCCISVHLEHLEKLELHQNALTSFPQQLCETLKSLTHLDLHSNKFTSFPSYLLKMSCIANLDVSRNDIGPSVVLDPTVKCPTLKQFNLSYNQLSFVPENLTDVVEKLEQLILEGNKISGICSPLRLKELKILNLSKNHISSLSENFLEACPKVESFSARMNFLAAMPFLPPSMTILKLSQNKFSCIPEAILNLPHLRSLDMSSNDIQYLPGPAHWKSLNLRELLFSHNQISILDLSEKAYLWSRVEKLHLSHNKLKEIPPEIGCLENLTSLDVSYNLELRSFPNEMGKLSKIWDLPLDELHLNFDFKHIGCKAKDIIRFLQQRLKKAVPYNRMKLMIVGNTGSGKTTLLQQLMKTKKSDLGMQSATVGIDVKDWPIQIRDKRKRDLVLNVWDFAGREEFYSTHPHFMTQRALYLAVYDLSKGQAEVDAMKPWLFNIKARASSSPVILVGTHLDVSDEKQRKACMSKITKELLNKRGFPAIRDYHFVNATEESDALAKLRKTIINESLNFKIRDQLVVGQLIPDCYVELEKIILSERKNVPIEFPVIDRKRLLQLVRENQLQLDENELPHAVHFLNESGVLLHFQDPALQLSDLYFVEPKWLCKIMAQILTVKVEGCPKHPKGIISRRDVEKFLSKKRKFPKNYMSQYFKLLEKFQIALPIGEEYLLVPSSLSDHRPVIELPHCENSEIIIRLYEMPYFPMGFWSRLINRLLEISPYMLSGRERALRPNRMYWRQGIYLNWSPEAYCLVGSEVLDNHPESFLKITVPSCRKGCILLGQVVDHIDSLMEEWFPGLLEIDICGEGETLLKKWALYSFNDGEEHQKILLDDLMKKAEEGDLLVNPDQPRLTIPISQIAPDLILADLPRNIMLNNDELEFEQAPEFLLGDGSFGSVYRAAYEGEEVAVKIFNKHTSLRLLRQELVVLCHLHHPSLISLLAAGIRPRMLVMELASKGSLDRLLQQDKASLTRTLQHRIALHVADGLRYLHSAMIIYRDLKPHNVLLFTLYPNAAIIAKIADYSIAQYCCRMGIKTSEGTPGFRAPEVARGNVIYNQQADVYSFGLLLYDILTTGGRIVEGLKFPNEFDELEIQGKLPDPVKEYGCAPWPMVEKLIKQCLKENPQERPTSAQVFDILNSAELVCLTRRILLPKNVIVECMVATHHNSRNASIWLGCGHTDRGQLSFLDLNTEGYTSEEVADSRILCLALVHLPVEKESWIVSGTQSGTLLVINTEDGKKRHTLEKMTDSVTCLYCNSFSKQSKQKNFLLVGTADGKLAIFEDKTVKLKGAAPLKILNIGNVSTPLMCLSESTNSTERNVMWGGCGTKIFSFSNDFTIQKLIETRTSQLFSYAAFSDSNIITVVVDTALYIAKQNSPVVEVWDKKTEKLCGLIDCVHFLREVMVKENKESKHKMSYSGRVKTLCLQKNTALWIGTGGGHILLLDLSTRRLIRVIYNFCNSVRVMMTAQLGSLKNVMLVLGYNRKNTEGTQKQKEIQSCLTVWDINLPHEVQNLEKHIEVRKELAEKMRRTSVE
Sequence of MLK3 (Q16584 whole entry, looked up): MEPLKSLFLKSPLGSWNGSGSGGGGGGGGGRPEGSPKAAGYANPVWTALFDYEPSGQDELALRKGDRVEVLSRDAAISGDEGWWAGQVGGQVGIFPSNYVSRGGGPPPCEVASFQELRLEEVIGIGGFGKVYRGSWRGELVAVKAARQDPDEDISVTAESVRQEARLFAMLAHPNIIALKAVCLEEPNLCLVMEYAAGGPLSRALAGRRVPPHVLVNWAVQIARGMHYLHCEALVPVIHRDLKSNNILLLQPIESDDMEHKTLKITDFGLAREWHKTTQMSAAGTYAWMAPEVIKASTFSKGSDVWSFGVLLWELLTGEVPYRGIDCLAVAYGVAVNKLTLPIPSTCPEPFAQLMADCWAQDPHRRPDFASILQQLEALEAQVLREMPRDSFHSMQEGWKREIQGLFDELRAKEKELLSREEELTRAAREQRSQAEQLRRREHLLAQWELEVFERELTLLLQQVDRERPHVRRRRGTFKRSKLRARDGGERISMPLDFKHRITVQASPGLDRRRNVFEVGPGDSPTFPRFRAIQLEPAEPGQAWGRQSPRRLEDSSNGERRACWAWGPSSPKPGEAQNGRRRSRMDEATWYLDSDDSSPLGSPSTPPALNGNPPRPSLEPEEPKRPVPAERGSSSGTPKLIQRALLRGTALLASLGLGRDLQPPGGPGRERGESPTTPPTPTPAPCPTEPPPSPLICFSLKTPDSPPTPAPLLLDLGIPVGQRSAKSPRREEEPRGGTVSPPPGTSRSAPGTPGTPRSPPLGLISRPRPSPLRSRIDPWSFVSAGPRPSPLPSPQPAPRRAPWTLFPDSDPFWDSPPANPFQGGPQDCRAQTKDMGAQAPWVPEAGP
Sequence of LRRK2 wild-type (Q5S007 whole entry, looked up): as the sequence (Q5S007 whole entry G2019S, looked up) above, with S2019G counted along it
Sequence of MLK1 (P80192 whole entry, looked up): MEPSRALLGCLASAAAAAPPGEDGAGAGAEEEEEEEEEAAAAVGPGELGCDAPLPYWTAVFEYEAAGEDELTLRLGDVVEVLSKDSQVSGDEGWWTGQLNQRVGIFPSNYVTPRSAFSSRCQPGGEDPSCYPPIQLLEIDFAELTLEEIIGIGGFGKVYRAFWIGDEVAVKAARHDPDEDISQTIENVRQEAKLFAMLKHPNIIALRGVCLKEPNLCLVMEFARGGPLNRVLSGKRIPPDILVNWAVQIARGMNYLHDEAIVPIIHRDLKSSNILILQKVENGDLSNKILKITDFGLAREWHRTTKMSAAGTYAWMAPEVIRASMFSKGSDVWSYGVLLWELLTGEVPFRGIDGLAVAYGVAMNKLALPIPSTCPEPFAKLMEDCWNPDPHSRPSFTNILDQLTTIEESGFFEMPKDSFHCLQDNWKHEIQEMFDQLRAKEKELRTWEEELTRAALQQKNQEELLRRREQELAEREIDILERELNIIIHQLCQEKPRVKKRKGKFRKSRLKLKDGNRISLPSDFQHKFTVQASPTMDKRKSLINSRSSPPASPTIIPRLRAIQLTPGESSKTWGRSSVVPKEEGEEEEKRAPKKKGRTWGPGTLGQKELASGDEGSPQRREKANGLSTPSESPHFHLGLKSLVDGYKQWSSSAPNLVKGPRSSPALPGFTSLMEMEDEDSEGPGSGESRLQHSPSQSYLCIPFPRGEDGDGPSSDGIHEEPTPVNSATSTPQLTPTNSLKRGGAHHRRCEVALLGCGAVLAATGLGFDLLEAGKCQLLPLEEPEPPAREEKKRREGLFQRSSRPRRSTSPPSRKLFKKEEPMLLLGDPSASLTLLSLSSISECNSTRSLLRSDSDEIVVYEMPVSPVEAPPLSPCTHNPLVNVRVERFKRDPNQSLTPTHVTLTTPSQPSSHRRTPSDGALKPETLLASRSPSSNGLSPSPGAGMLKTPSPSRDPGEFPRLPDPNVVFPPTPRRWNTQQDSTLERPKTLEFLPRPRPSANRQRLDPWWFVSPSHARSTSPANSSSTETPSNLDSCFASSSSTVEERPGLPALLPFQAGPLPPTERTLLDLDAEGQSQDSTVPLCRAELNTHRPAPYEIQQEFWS

| IC50 (MLK3) [nM] | Compound | inhibition at 10 µM ([1]; K562, 10 μM, 72 hours, CCK-8) [%] | inhibition at 10 µM ([2]; HT-29, 10 μM, 72 hours, CCK-8) [%] | inhibition at 10 µM ([3]; 10 μM, 72 hours, CCK-8) [%] | inhibition at 10 µM [4, 10] [%] | inhibition at 10 µM [5, 11] [%] | inhibition at 10 µM [6, 12] [%] | inhibition at 10 µM [7, 13] [%] | inhibition at 10 µM ([3]; 72 h) [%] | inhibition at 10 µM [6, 15] [%] | inhibition at 10 µM ([7]; U-937, 72 h) [%] | IC50 (MLK3; read-out: IC50(nM) MLK3) [nM] | remaining binding at 0.1 µM (LRRK2 mutant (G2019S)) [%] | remaining binding at 0.5 µM (LRRK2 mutant (G2019S)) [%] | remaining binding at 0.1 µM (LRRK2 wild-type) [%] | remaining binding at 0.5 µM (LRRK2 wild-type) [%] | other results |
| --- | --- | --- | --- | --- | --- | --- | --- | --- | --- | --- | --- | --- | --- | --- | --- | --- | --- |
| 4 | CCS(=O)(=O)N1CC[C@H](Nc2c(Br)cnc3[nH]c(-c4cc(C)n(-c5ccc(N6CCOCC6)cc5)c4C)nc23)C1 [Example 1, (S)-6-bromo-2-(2,5-dimethyl-1-(4-morpholinophenyl)-1H-pyrrol-3-yl)-N-(1-(ethylsulfonyl)pyrrolidine-3-yl)-3H-imidazo[4,5-b]pyridine-7-amine] | < 10 | 10 to 50 | 10 to 50 | 10 to 50 | 10 to 50 | 10 to 50 | 10 to 50 | – | – | – | – | – | – | – | – | – |
| – | CCS(=O)(=O)N1CC[C@H](Nc2c(Br)cnc3[nH]c(-c4cc(C)n(-c5c(Cl)cccc5Cl)c4C)nc23)C1 [Example 13, (S)-6-bromo-2-(1-(2,6-dichlorophenyl)-2,5-dimethyl-1H-pyrrol-3-yl)-N-(1-(ethylsulfonyl)pyrrolidine-3-yl)-3H-imidazo[4,5-b]pyridine-7-amine] | – | – | – | – | – | – | – | > 50 | > 50 | 10 to 50 | 7 | – | – | – | – | inhibition at 10 µM ([1]; K562, 72 h): 10 to 50%; inhibition at 10 µM ([2]; HT-29, 72 h): 10 to 50%; inhibition at 10 µM [4, 14]: 10 to 50%; inhibition at 10 µM ([5]; U-937, 72 h): > 50% |
| 17 | CCS(=O)(=O)N1CC[C@H](Nc2c(Br)cnc3[nH]c(-c4cc(C)n(-c5cc(Cl)ccc5Cl)c4C)nc23)C1 [Example 14, 6-bromo-2-(1-(2,5-dichlorophenyl)-2,5-dimethyl-1H-pyrrol-3-yl)-N—((S)-1-(ethylsulfonyl)pyrrolidine-3-yl)-3H-imidazo[4,5-b]pyridine-7-amine] | < 10 | 10 to 50 | 10 to 50 | < 10 | 10 to 50 | 10 to 50 | 10 to 50 | – | – | – | – | – | – | – | – | – |
| – | CCS(=O)(=O)N1CC[C@H](Nc2c(Br)cnc3[nH]c(-c4cc(C)n(-c5ccc(Cl)c(Cl)c5)c4C)nc23)C1 [Example 15, (S)-6-bromo-2-(1-(3,4-dichlorophenyl)-2,5-dimethyl-1H-pyrrol-3-yl)-N-(1-(ethylsulfonyl)pyrrolidine-3-yl)-3H-imidazo[4,5-b]pyridine-7-amine] | – | – | – | – | – | – | – | 10 to 50 | < 10 | 10 to 50 | 34 | – | – | – | – | inhibition at 10 µM ([1]; K562, 72 h): 10 to 50%; inhibition at 10 µM ([2]; HT-29, 72 h): < 10%; inhibition at 10 µM [4, 14]: > 50%; inhibition at 10 µM ([5]; U-937, 72 h): 10 to 50% |
| 11 | CCS(=O)(=O)N1CC[C@H](Nc2c(Br)cnc3[nH]c(-c4cc(C)n(-c5ccccc5Cl)c4C)nc23)C1 [Example 16, 6-bromo-2-(1-(2-chlorophenyl)-2,5-dimethyl-1H-pyrrol-3-yl)-N—((S)-1-(ethylsulfonyl)pyrrolidine-3-yl)-3H-imidazo[4,5-b]pyridine-7-amine] | > 50 | 10 to 50 | 10 to 50 | 10 to 50 | > 50 | 10 to 50 | < 10 | – | – | – | – | – | – | – | – | – |
| – | Cc1cc(-c2nc3c(Nc4cccc(S(N)(=O)=O)c4)c(Br)cnc3[nH]2)c(C)n1-c1c(Cl)cccc1Cl [Example 26, 3-((6-bromo-2-(1-(2,6-dichlorophenyl)-2,5-dimethyl-1H-pyrrol-3-yl)-3H-imidazo[4,5-b]pyridine-7-yl)amino)benzenesulfonamide] | < 10 | 10 to 50 | 10 to 50 | 10 to 50 | 10 to 50 | 10 to 50 | 10 to 50 | – | – | – | 19 | – | – | – | – | – |
| – | CCS(=O)(=O)N1CC[C@H](Nc2c(Cl)cnc3nc(-c4cc(C)n(-c5cccc(C(=O)N6CCOCC6)c5)c4C)[nH]c23)C1 [Example 54, (S)-(3-(3-(6-chloro-7-((1-(ethylsulfonyl)pyrrolidine-3-yl)amino)-1H-imidazo[4,5-b]pyridine-2-yl)-2,5-dimethyl-1H-pyrrol-1-yl)phenyl) (morpholino) methanone] | – | – | – | – | – | – | – | – | – | – | – | 6.3 | 0.4 | 24 | 4.1 | – |
| – | CCS(=O)(=O)N1CC[C@H](Nc2c(Br)cnc3nc(-c4cc(C)n(-c5cc(C(=O)N6CCOCC6)ccc5C)c4C)[nH]c23)C1 [Example 91, (3-(3-(6-bromo-7-(((S)-1-(ethylsulfonyl)pyrrolidine-3-yl)amino)-1H-imidazo[4,5-b]pyridine-2-yl)-2,5-dimethyl-1H-pyrrol-1-yl)-4-methylphenyl) (morpholino) methanone] | – | – | – | – | – | – | – | > 50 | > 50 | > 50 | 25 | – | – | – | – | IC50 (MLK1): 19 nM; inhibition at 10 µM ([8]; A549, 72 h, read-out: Cancer cell proliferation inhibitory activity A549): > 50%; inhibition at 10 µM ([9]; 72 h, read-out: Cancer cell proliferation inhibitory activity Hs746T): > 50% |
| – | Cc1ccc(C(=O)N2CCOCC2)cc1-n1c(C)cc(-c2nc3ncc(Br)c(Nc4cccc(S(N)(=O)=O)c4)c3[nH]2)c1C [Example 94, 3-((6-bromo-2-(2,5-dimethyl-1-(2-methyl-5-(morpholine-4-carbonyl)phenyl)-1H-pyrrol-3-yl)-1H-imidazo[4,5-b]pyridine-7-yl)amino)benzenesulfonamide] | – | – | 10 to 50 | – | – | 10 to 50 | 10 to 50 | – | – | – | 73 | 59 | 16 | 70 | 40 | IC50 (MLK1): 52 nM; inhibition at 10 µM [8, 16]: < 10%; inhibition at 10 µM [9, 17]: > 50% |
| – | CCS(=O)(=O)N1CC[C@H](Nc2c(Br)cnc3[nH]c(-c4cc(C)n(-c5ccc(C(=O)N6CCOCC6)cc5C)c4C)nc23)C1 [Example 98, (4-(3-(6-bromo-7-(((S)-1-(ethylsulfonyl)pyrrolidine-3-yl)amino)-3H-imidazo[4,5-b]pyridine-2-yl)-2,5-dimethyl-1H-pyrrol-1-yl)-3-methylphenyl) (morpholino) methanone] | – | – | > 50 | – | – | > 50 | > 50 | – | – | – | – | 8.2 | 1 | 18 | 3.5 | inhibition at 10 µM [8, 16]: 10 to 50%; inhibition at 10 µM [9, 17]: > 50% |
